Consider three compounds from BindingDB's records for doi:10.1080/14756360600889708 (University of Karachi, 2006).

A word on the Ki: it is the dissociation constant of the complex between target and ligand, obtained from inhibition or displacement.

Assay [1] has as its target Carboxylic ester hydrolase (Equus caballus, UniProt Q9N1N9). Kind of assay: Enzyme Inhibition Assay. The conditions noted are these: 30 °C. As to the method:
(§1) AChE and BChE inhibitory activities were measured in vitro by a modified spectrophotometric method. all the inhibition studies were performed using a Spectra Max microplate spectrophotometer from Molecular Devices, CA, USA.

In another assay the target is Acetylcholinesterase (Tetronarce californica, UniProt P04058). Description: Enzyme Inhibition Assay. Particulars: 30 °C. As to the method: as §1
Chain of Acetylcholinesterase (P04058 whole entry): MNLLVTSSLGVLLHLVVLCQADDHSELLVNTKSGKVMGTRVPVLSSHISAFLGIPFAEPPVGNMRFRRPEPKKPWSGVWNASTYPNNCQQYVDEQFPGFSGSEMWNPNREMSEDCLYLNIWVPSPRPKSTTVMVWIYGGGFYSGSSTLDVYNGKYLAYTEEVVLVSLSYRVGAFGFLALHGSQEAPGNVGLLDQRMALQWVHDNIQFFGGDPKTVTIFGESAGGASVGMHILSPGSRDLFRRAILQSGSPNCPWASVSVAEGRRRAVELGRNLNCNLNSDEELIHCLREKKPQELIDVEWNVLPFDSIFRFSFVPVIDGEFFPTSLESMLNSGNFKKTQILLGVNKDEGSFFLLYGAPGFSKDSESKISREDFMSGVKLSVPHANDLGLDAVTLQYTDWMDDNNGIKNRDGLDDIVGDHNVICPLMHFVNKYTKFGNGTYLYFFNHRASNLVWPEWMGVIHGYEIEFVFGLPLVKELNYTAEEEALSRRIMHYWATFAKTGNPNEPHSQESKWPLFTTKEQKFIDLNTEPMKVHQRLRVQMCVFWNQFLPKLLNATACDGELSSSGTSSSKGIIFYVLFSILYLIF

Chain of Carboxylic ester hydrolase (Q9N1N9 whole entry): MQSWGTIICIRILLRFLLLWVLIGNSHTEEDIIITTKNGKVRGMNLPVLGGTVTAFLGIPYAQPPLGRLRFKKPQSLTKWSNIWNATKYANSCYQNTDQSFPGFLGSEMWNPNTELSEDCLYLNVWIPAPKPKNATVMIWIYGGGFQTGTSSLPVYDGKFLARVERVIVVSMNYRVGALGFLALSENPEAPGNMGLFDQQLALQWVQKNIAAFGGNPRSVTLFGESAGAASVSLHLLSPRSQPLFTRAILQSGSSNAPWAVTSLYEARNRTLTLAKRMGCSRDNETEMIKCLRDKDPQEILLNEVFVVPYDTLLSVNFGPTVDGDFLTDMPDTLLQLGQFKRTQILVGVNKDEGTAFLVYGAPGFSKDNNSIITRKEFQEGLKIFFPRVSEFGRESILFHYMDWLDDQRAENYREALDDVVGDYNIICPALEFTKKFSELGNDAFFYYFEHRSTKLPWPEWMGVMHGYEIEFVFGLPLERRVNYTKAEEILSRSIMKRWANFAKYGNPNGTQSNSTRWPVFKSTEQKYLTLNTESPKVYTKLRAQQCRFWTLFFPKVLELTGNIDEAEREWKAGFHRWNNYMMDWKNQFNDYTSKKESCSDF

`COc1ccc2c3c1O[C@H]1C[C@@H](O)C=C[C@@]31CCN(C)C2` [galantamine] registered a Ki in assay [1] of 32 µM.
`COC(C)(C)[C@H]1Cc2c(n(C)c3ccccc3c2=O)O1` [Methyl isoplatydesmine, 4]: the Ki in assay [1] turned out to be 19 µM; at Acetylcholinesterase it was 30 µM.
For `Cn1c2c(c(=O)c3ccccc31)C[C@@H](O)C(C)(C)O2` [Ribalinine, 3], in that order: 70 µM and 30 µM.
